In patent US20230219965A1 (KSQ Therapeutics, Inc., priority 2020, published 2023):
Where two headings read alike, the source gives them in different places.

Key:
USP1/UAF1 enzyme = USP1/UAF1 enzyme (Homo sapiens, UniProt O94782); assay: USP1/UAF1 deubiquitination assay (ubiquitin-rhodamine 110 substrate); type: biochemical; conditions: read-out: USP1 IC50 (Ub-Rho)
In short: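 Cleavage of 150 nM ubiquitin-rhodamine 110 by 0.05 nM USP1/UAF1 was followed as fluorescence (Ex480/Em540, kinetic, 30 min) in Tris-HCl pH 7.8 buffer with EDTA, BSA, DTT and Tween-20. Compounds, top 10 μM, were preincubated with enzyme 10 min; % inhibition against no-enzyme and DMSO wells gave four-parameter IC50s.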

[1] = tested on: Ub-PCNA levels in the nucleus of ES2 cells (USP1 activity); assay: ES2 Ub-PCNA immunofluorescence (IF) assay; type: cell-based; conditions: Homo sapiens, ES-2; ES2 cells, 3 hours, Ub-PCNA immunofluorescence; read-out: USP1 IC50 (Ub-PCNA)
In short: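 AC50 derived from percent Ub-PCNA-positive nuclei, positivity set by a 95% cutoff from untreated-well intensities. Readout by imaging immunofluorescence (anti-Ub-PCNA, DAPI nuclear mask) after methanol fixation. Compound exposure: 3 h at 37° C, 0.3% DMSO final, on cells plated overnight.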

[2] = ADME solubility determination in PBS at pH 2.0 and pH 7.4; type: physicochemical; conditions: phosphate buffered saline, 25 °C, thermodynamic from solid
In short: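 Solubility was read by LC-MS/MS on centrifuged supernatants, calibrated to a known-concentration standard and corrected for dilution. Compound, dried down from 10 mM DMSO stock, was equilibrated 24 h at 25° C with shaking in PBS at pH 2.0 or pH 7.4.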

[3] = Liver microsomal metabolic stability, rat liver microsomes (RLM); conditions: rat, liver microsomes, t1/2 (min) in RLM, 1 μM compound, 1 mg/mL microsomes, NADPH
Protocol: (§1) Samples were prepared by adding 222.5 μL of a master solution (100 mM phosphate buffer and 1 mg/mL liver microsomes (HLM or RLM)) and 25 μL of a 10 mM NADPH solution to incubation plates, which were then warmed for 10 min. Each compound was separately dissolved in DMSO to prepare 10 mM stock solutions, which were then diluted to 100 μM with acetonitrile. A reaction was started by adding 2.5 μL of the 100 μM solution of each compound to separate incubation plates such that the final concentration of for each compound in each plate was 1 μM.
(§2) 25 μL aliquots of each sample were taken at 0.5, 5, 10, 15, 20 and 30 minutes, and the reaction was stopped by adding 5 volumes of cold acetonitrile with IS (100 nM alprazolam, 200 nM caffeine and 100 nM tolbutamide). The samples were then centrifuged at 3,220 G for 30 minutes, and 100 μL of the supernatant fluid was mixed with 100 μL of ultra-pure H2O.
(§3) The samples were then analyzed by LC-MS/MS. Peak areas were determined from extracted ion chromatograms. Slope values (k) were determined by linear regression of the natural logarithm of the remaining percentage of the compound vs. incubation time curve. The in vitro half-life (in vitro t1/2) was determined from the slope value using the following equation:

[4] = Liver microsomal metabolic stability, human liver microsomes (HLM); conditions: human, liver microsomes
Protocol: as §1, §2, §3

[5] = pH 2, aqueous buffer, PBS pH 2.0, 25° C., read-out: Solubility at pH 2.0
[6] = pH 7.4, aqueous buffer, PBS pH 7.4, 25° C., read-out: Solubility at pH 7.4

Chain of USP1/UAF1 enzyme (O94782 whole entry): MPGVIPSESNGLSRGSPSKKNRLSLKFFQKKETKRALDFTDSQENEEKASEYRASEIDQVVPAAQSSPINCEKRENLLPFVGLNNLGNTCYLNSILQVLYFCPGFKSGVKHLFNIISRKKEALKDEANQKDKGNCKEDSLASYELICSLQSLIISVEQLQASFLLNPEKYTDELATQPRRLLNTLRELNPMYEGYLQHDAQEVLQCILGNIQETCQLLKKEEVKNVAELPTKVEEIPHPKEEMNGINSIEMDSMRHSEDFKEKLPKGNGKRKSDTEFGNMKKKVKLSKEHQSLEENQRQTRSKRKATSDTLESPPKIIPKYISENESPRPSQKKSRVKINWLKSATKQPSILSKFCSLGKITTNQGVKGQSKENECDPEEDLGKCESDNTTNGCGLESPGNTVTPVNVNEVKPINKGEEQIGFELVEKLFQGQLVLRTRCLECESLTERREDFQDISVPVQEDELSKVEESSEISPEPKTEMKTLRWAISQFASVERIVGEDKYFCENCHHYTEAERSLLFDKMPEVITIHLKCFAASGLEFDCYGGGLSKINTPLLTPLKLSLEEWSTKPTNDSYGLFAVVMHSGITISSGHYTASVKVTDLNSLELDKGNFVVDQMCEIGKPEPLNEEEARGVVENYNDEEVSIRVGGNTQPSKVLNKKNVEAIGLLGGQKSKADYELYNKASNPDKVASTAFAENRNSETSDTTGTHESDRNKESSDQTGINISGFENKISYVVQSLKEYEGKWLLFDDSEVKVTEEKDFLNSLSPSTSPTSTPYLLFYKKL
Chain of USP1/UAF1 enzyme (Q8TAF3 whole entry partner): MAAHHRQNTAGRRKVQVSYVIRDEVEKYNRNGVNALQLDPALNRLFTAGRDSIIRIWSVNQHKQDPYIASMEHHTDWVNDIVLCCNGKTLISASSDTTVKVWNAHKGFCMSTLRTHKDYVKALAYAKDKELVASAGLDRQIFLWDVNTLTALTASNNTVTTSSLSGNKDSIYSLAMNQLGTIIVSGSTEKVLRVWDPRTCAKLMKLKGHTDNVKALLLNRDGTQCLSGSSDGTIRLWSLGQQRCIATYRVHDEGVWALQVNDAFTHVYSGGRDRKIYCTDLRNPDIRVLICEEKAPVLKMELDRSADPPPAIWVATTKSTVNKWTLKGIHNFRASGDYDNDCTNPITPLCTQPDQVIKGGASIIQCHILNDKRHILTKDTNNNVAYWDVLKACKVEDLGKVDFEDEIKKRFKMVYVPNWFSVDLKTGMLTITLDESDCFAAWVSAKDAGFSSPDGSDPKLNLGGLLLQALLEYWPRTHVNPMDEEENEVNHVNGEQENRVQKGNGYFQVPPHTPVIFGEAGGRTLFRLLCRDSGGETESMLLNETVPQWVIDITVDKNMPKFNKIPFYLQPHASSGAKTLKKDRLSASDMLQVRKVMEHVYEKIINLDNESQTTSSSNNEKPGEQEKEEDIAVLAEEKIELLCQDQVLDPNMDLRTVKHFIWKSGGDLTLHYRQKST

| Structure (SMILES) | IC50 (USP1/UAF1 enzyme) [nM] | IC50 [1] [nM] | solubility at 24 h [2, 5] [µM] | solubility at 24 h [2, 6] [µM] | half-life at 1 μM [3] [min] | half-life at 1 μM [4] [min] |
| --- | --- | --- | --- | --- | --- | --- |
| CCn1cc(C(F)(F)F)nc1-c1ccc(CN2C(=O)C(C)Cn3nc(-c4c(OC)ncnc4C4CC4)nc32)cc1F (stereo not drawn) [Example 347, 2-(4-cyclopropyl-6-methoxypyrimidin-5-yl)-4-(4-(1-ethyl-4-(trifluoromethyl)-1H-imidazol-2-yl)-3-fluorobenzyl)-6-methyl-6,7-dihydro-[1,2,4]triazolo[1,5-α]pyrimidin-5(4H)-one] | < 100 | < 100 | ≥ 10 | ≥ 10 | > 25 | > 25 |
| CCn1cc(C(F)(F)F)nc1-c1ccc(CN2C(=O)C(C)Cn3nc(-c4c(Cl)cnn4C(C)C)nc32)cc1F (stereo not drawn) [Example 350, 2-(4-chloro-1-isopropyl-1H-pyrazol-5-yl)-4-(4-(1-ethyl-4-(trifluoromethyl)-1H-imidazol-2-yl)-3-fluorobenzyl)-6-methyl-6,7-dihydro-[1,2,4]triazolo[1,5-a]pyrimidin-5(4H)-one] | < 100 | < 100 | < 10 | < 10 | > 25 | > 25 |
| CCn1cc(C(F)(F)F)nc1-c1ccc(CN2C(=O)C(C)Cn3nc(-c4c(OC(F)F)ncnc4C4CC4)nc32)cc1F (stereo not drawn) [Example 351, 2-(4-cyclopropyl-6-(difluoromethoxy)pyrimidin-5-yl)-4-(4-(1-ethyl-4-(trifluoromethyl)-1H-imidazol-2-yl)-3-fluorobenzyl)-6-methyl-6,7-dihydro-[1,2,4]triazolo[1,5-a]pyrimidin-5(4H)-one] | < 100 | < 100 | < 10 | < 10 | > 25 | > 25 |
| CCn1cc(C(F)(F)F)nc1-c1ccc(NC2c3cc(-c4c(Cl)cnn4C(C)C)nn3CCC2(C)C)cc1 (stereo not drawn) [Example 352, 2-(4-chloro-1-isopropyl-1H-pyrazol-5-yl)-N-(4-(1-ethyl-4-(trifluoromethyl)-1H-imidazol-2-yl)phenyl)-5,5-dimethyl-4,5,6,7-tetrahydropyrazolo[1,5-α]pyridin-4-amine] | < 100 | < 100 | < 10 | < 10 | < 25 | > 25 |
| CCn1cc(C(F)(F)F)nc1-c1ccc(CN2CC(N)Cn3nc(-c4c(Cl)cnn4C(C)C)cc32)cc1F (stereo not drawn) [Example 353, 2-(4-chloro-1-isopropyl-1H-pyrazol-5-yl)-4-(4-(1-ethyl-4-(trifluoromethyl)-1H-imidazol-2-yl)-3-fluorobenzyl)-4,5,6,7-tetrahydropyrazolo[1,5-α]pyrimidin-6-amine] | < 100 | < 100 | ≥ 10 | < 10 | < 25 | < 25 |
| CCn1cc(C(F)(F)F)nc1-c1ccc(NC2CCCc3nn(-c4ccccc4C(C)C)cc32)cc1F (stereo not drawn) [Example 355, N-(4-(1-ethyl-4-(trifluoromethyl)-1H-imidazol-2-yl)-3-fluorophenyl)-2-(2-isopropylphenyl)-4,5,6,7-tetrahydro-2H-indazol-4-amine] | < 100 | 100 to 500 | < 10 | < 10 | < 25 | < 25 |
| CCn1cc(C(F)(F)F)nc1-c1ccc(NC2CCCCn3nc(-c4c(Cl)cnn4C(C)C)cc32)cc1 (stereo not drawn) [Example 357, 2-(4-chloro-1-isopropyl-1H-pyrazol-5-yl)-N-(4-(1-ethyl-4-(trifluoromethyl)-1H-imidazol-2-yl)phenyl)-5,6,7,8-tetrahydro-4H-pyrazolo[1,5-α]azepin-4-amine] | < 100 | < 100 | < 10 | < 10 | < 25 | < 25 |
| CCn1cc(C(F)(F)F)nc1-c1ccc(OC2CCCCn3nc(-c4c(Cl)cnn4C(C)C)cc32)cc1 (stereo not drawn) [Example 358, 2-(4-chloro-1-isopropyl-1H-pyrazol-5-yl)-4-(4-(1-ethyl-4-(trifluoromethyl)-1H-imidazol-2-yl)phenoxy)-5,6,7,8-tetrahydro-4H-pyrazolo[1,5-α]azepine] | < 100 | < 100 | < 10 | < 10 | < 25 | > 25 |
| CCn1cc(C(F)(F)F)nc1-c1ccc(CC2c3cc(-c4c(Cl)cnn4C(C)C)nn3CCN2C)cc1 (stereo not drawn) [Example 360, 2-(4-chloro-1-isopropyl-1H-pyrazol-5-yl)-4-(4-(1-ethyl-4-(trifluoromethyl)-1H-imidazol-2-yl)benzyl)-5-methyl-4,5,6,7-tetrahydropyrazolo[1,5-α]pyrazine] | < 100 | < 100 | ≥ 10 | < 10 | < 25 | < 25 |
| CCn1cc(C(F)(F)F)nc1-c1ccc(CC2c3cc(-c4c(OC)ncnc4C4CC4)nn3CCN2C)cc1 (stereo not drawn) [Example 362, 2-(4-cyclopropyl-6-methoxypyrimidin-5-yl)-4-(4-(1-ethyl-4-(trifluoromethyl)-1H-imidazol-2-yl)benzyl)-5-methyl-4,5,6,7-tetrahydropyrazolo[1,5-a]pyrazine] | < 100 | 100 to 500 | ≥ 10 | ≥ 10 | < 25 | < 25 |
| CCn1cc(C(F)(F)F)nc1-c1ccc(CN2C(=O)CCn3nc(-c4c(OC(F)F)ncnc4C4CC4)nc32)cc1 [Example 364, 2-(4-cyclopropyl-6-(difluoromethoxy)pyrimidin-5-yl)-4-(4-(1-ethyl-4-(trifluoromethyl)-1H-imidazol-2-yl)benzyl)-6,7-dihydro-[1,2,4]triazolo[1,5-α]pyrimidin-5(4H)-one] | < 100 | < 100 | < 10 | < 10 | > 25 | > 25 |
| COc1c(CN2C(=O)CCn3nc(-c4c(OC(F)F)ncnc4C4CC4)nc32)ccc(-c2nc(C(F)(F)F)cn2C(C)C)c1F [Example 365, 2-(4-cyclopropyl-6-(difluoromethoxy)pyrimidin-5-yl)-4-(3-fluoro-4-(1-isopropyl-4-(trifluoromethyl)-1H-imidazol-2-yl)-2-methoxybenzyl)-6,7-dihydro-[1,2,4]triazolo[1,5-a]pyrimidin-5(4H)-one] | < 100 | < 100 | < 10 | < 10 | > 25 | > 25 |
| CCn1cc(C(F)(F)F)nc1-c1ccc(CN2C(=O)CCn3nc(-c4c(OC(F)F)ncnc4C4CC4)nc32)cc1F [Example 370, 2-(4-cyclopropyl-6-(difluoromethoxy)pyrimidin-5-yl)-4-(4-(1-ethyl-4-(trifluoromethyl)-1H-imidazol-2-yl)-3-fluorobenzyl)-6,7-dihydro-[1,2,4]triazolo[1,5-a]pyrimidin-5(4H)-one] | < 100 | < 100 | < 10 | < 10 | > 25 | > 25 |
| CC(C)n1cc(C(F)(F)F)nc1-c1ccc(C(N2CCCn3nc(-c4c(Cl)cnn4C(C)C)cc32)C(F)(F)F)cc1F (stereo not drawn) [Example 371, 2-(4-chloro-1-isopropyl-1H-pyrazol-5-yl)-4-(2,2,2-trifluoro-1-(3-fluoro-4-(1-isopropyl-4-(trifluoromethyl)-1H-imidazol-2-yl)phenyl)ethyl)-4,5,6,7-tetrahydropyrazolo[1,5-α]pyrimidine] | < 100 | < 100 | < 10 | < 10 | < 25 | < 25 |
